Reference: patent publication US10765114B2, “4-amino-6-(pyridyl and 2-substitutedphenyl)-picolinates and 6-amino-2-(pyridyl and 2-substitutedphenyl)-pyrimidine-4-carboxylates and their use as herbicides” (Dow AgroSciences LLC, priority 2013, dated 2020)

What was measured:
Assay in all cases: Post-Emergent Test III (Wheat and Barley)
[1] = system: ALOMY (blackgrass); format: in vivo, Alopecurus myosuroides; details: for pest or weed control at 35 g/ha / pest or weed control at 70 g/ha / pest or weed control at 140 g/ha: Alopecurus myosuroides, post-emergence, 504 h, postemergence, read-out: Visual Growth Reduction (%) 21 Days After Application, ALOMY; for pest or weed control at 35 g/ha: 35 g ai/ha; for pest or weed control at 70 g/ha: 70 g ai/ha; for pest or weed control at 140 g/ha: 140 g ai/ha; for GR50, ALOMY: effective dose for growth reduction of 50 percent; for GR50, ALOMY / GR80, ALOMY: probit analysis; for GR80, ALOMY: effective dose for growth reduction of 80 percent
Protocol: (§1) Seeds of the desired test plant species were planted in Sun Gro MetroMix® 306 planting mixture, which typically has a pH of 6.0 to 6.8 and an organic matter content of about 30 percent, in plastic pots with a surface area of 103.2 square centimeters (cm^2). When required to ensure good germination and healthy plants, a fungicide treatment and/or other chemical or physical treatment was applied. The plants were grown for 7-36 days in a greenhouse with an approximate 14 h photoperiod which was maintained at about 18° C. during the day and 17° C. during the night. Nutrients and water were added on a regular basis and supplemental lighting was provided with overhead metal halide 1000-Watt lamps as necessary. The plants were employed for testing when they reached the second or third true leaf stage.
(§2) A weighed amount, determined by the highest rate to be tested, of each test compound was placed in a 25 mL glass vial and was dissolved in 4 mL of a 97:3 v/v mixture of acetone and DMSO to obtain concentrated stock solutions. […] The concentrated stock solutions obtained were diluted with 20 mL of an aqueous mixture containing acetone, water, isopropyl alcohol, DMSO, Agri-Dex crop oil concentrate, and X-77 surfactant in a 48:39:10:1.5:1.5:0.02 v/v ratio to obtain spray solutions containing the highest application rates. Additional application rates were obtained by serial dilution of 12 mL of the high rate solution into a solution containing 2 mL of 97:3 v/v mixture of acetone and DMSO and 10 mL of an aqueous mixture containing acetone, water, isopropyl alcohol, DMSO, Agri-Dex crop oil concentrate, and X-77 surfactant in a 48:39:10:1.5:1.5:0.02 v/v ratio to obtain ½×, ¼×, ⅛× and 1/16× rates of the high rate. Compound requirements are based upon a 12 mL application volume at a rate of 187 liters per hectare (L/ha). Formulated compounds were applied to the plant material with an overhead Mandel track sprayer equipped with 8002E nozzles calibrated to deliver 187 L/ha over an application area of 0.503 square meters at a spray height of 18 inches (43 cm) above the average plant canopy height. Control plants were sprayed in the same manner with the solvent blank.
(§3) The treated plants and control plants were placed in a greenhouse as described above and watered by subirrigation to prevent wash-off of the test compounds. After 21 dAYS, the condition of the test plants as compared with that of the untreated plants was determined visually and scored on a scale of 0 to 100 percent where 0 corresponds to no injury and 100 corresponds to complete kill and presented as indicated in Table A.
(§4) By applying the well-accepted probit analysis as described by J. Berkson in Journal of the American Statistical Society, 48, 565 (1953) and by D. Finney in “Probit Analysis” Cambridge University Press (1952), herbicidal injury of a specific compound at various rates can be used to calculate GR10, GR20, GR50, GR80 and GR90 values, which are defined as growth reduction factors that correspond to the effective dose of herbicide required to provide plant growth reduction (GR) of 10 percent, 20 percent, 50 percent, 80 percent and 90 percent, respectively. Probit analysis was applied to data collected from multiple dose rates of individual compounds utilizing the procedures explained in the following examples. The analysis of those dose rates is captured in the following tables.

[2] = system: KCHSC (kochia); format: in vivo, Kochia scoparia; details: for pest or weed control at 35 g/ha / pest or weed control at 70 g/ha / pest or weed control at 140 g/ha: Bassia scoparia, post-emergence, 504 h, postemergence, read-out: Visual Growth Reduction (%) 21 Days After Application, KCHSC; for pest or weed control at 35 g/ha: 35 g ai/ha; for pest or weed control at 70 g/ha: 70 g ai/ha; for pest or weed control at 140 g/ha: 140 g ai/ha; for GR50, KCHSC: effective dose for growth reduction of 50 percent; for GR50, KCHSC / GR80, KCHSC: probit analysis; for GR80, KCHSC: effective dose for growth reduction of 80 percent
Protocol: as §1, §2, §3, §4

[3] = system: SETVI (green foxtail); format: in vivo, Setaria viridis; details: for pest or weed control at 35 g/ha / pest or weed control at 70 g/ha / pest or weed control at 140 g/ha: Setaria viridis, post-emergence, 504 h, postemergence, read-out: Visual Growth Reduction (%) 21 Days After Application, SETVI; for pest or weed control at 35 g/ha: 35 g ai/ha; for pest or weed control at 70 g/ha: 70 g ai/ha; for pest or weed control at 140 g/ha: 140 g ai/ha; for GR50, SETVI: effective dose for growth reduction of 50 percent; for GR50, SETVI / GR80, SETVI: probit analysis; for GR80, SETVI: effective dose for growth reduction of 80 percent
Protocol: as §1, §2, §3, §4

[4] = system: APESV (windgrass); format: in vivo, Apera spica-venti; details: for pest or weed control at 35 g/ha / pest or weed control at 70 g/ha / pest or weed control at 140 g/ha: Apera spica-venti, post-emergence, 504 h, postemergence, read-out: Visual Growth Reduction (%) 21 Days After Application, APESV; for pest or weed control at 35 g/ha: 35 g ai/ha; for pest or weed control at 70 g/ha: 70 g ai/ha; for pest or weed control at 140 g/ha: 140 g ai/ha; for GR50, APESV: effective dose for growth reduction of 50 percent; for GR50, APESV / GR80, APESV: probit analysis; for GR80, APESV: effective dose for growth reduction of 80 percent
Protocol: as §1, §2, §3, §4

[5] = system: HORSS; format: in vivo; details: for pest or weed control at 35 g/ha / pest or weed control at 70 g/ha / pest or weed control at 140 g/ha: Hordeum vulgare, post-emergence, 504 h, postemergence, read-out: Visual Growth Reduction (%) 21 Days After Application, HORSS; for pest or weed control at 35 g/ha: 35 g ai/ha; for pest or weed control at 70 g/ha: 70 g ai/ha; for pest or weed control at 140 g/ha: 140 g ai/ha; for GR20, HORSS: effective dose for growth reduction of 20 percent, probit analysis
Protocol: as §1, §2, §3, §4

[6] = system: TRZSS; format: in vivo; details: for pest or weed control at 35 g/ha / pest or weed control at 70 g/ha / pest or weed control at 140 g/ha: Triticum aestivum, post-emergence, 504 h, postemergence, read-out: Visual Growth Reduction (%) 21 Days After Application, TRZSS; for pest or weed control at 35 g/ha: 35 g ai/ha; for pest or weed control at 70 g/ha: 70 g ai/ha; for pest or weed control at 140 g/ha: 140 g ai/ha; for GR20, TRZSS: effective dose for growth reduction of 20 percent, probit analysis
Protocol: as §1, §2, §3, §4

[7] = system: LOLSS; format: in vivo; details: for GR50, LOLSS: effective dose for growth reduction of 50 percent; for GR50, LOLSS / GR80, LOLSS: probit analysis; for GR80, LOLSS: effective dose for growth reduction of 80 percent; for pest or weed control at 35 g/ha / pest or weed control at 70 g/ha / pest or weed control at 140 g/ha: post-emergence, 504 h, postemergence, read-out: Visual Growth Reduction (%) 21 Days After Application, LOLSS; for pest or weed control at 35 g/ha: 35 g ai/ha; for pest or weed control at 70 g/ha: 70 g ai/ha; for pest or weed control at 140 g/ha: 140 g ai/ha
Protocol: as §1, §2, §3, §4

| Structure (SMILES) | pest or weed control at 35 g/ha [1] | pest or weed control at 70 g/ha [1] | pest or weed control at 140 g/ha [1] | GR50, ALOMY [1] | GR80, ALOMY [1] | pest or weed control at 35 g/ha [2] | pest or weed control at 70 g/ha [2] | pest or weed control at 140 g/ha [2] | GR50, KCHSC [2] | GR80, KCHSC [2] | pest or weed control at 35 g/ha [3] | pest or weed control at 70 g/ha [3] | pest or weed control at 140 g/ha [3] | GR50, SETVI [3] | GR80, SETVI [3] | pest or weed control at 35 g/ha [4] | pest or weed control at 70 g/ha [4] | pest or weed control at 140 g/ha [4] | GR50, APESV [4] | GR80, APESV [4] | also measured |
| --- | --- | --- | --- | --- | --- | --- | --- | --- | --- | --- | --- | --- | --- | --- | --- | --- | --- | --- | --- | --- | --- |
| COC(=O)c1nc(-c2ccc(Cl)c(F)c2OC)cc(N)c1Cl [Compound 20] | 45 to 59% | 75 to 84% | 85 to 94% | 86 g ai/ha | >140 g ai/ha | 85 to 94% | 95 to 100% | 95 to 100% | 2 g ai/ha | 10 g ai/ha | 0 to 29% | 60 to 74% | 60 to 74% | 80 g ai/ha | >140 g ai/ha | 0 to 29% | 60 to 74% | 75 to 84% | 117 g ai/ha | >140 g ai/ha | pest or weed control at 35 g/ha [5]: 45 to 59%; pest or weed control at 70 g/ha [5]: 75 to 84%; pest or weed control at 140 g/ha [5]: 85 to 94%; GR20, HORSS [5]: 7 g ai/ha; pest or weed control at 35 g/ha [6]: 85 to 94%; pest or weed control at 70 g/ha [6]: 85 to 94%; pest or weed control at 140 g/ha [6]: 85 to 94%; GR20, TRZSS [6]: 2 g ai/ha; GR50, LOLSS [7]: >140 g ai/ha; GR80, LOLSS [7]: >140 g ai/ha; pest or weed control at 35 g/ha [7]: 0 to 29%; pest or weed control at 70 g/ha [7]: 0 to 29%; pest or weed control at 140 g/ha [7]: 30 to 44% |
| Nc1c(F)c(-c2ccc(OC(F)F)nc2)nc(C(=O)O)c1Cl [Compound 66] | 0 to 29% | 0 to 29% | 45 to 59% | 140 g ai/ha | >140 g ai/ha | 0 to 29% | 45 to 59% | 60 to 74% | 80 g ai/ha | >140 g ai/ha | 30 to 44% | 60 to 74% | 75 to 84% | 49 g ai/ha | 112 g ai/ha | 0 to 29% | 0 to 29% | 60 to 74% | 130 g ai/ha | >140 g ai/ha | pest or weed control at 35 g/ha [5]: 60 to 74%; pest or weed control at 70 g/ha [5]: 60 to 74%; pest or weed control at 140 g/ha [5]: 85 to 94%; GR20, HORSS [5]: 15 g ai/ha; pest or weed control at 35 g/ha [6]: 75 to 84%; pest or weed control at 70 g/ha [6]: 85 to 94%; pest or weed control at 140 g/ha [6]: 95 to 100%; GR20, TRZSS [6]: 8 g ai/ha; GR50, LOLSS [7]: >140 g ai/ha; GR80, LOLSS [7]: >140 g ai/ha; pest or weed control at 35 g/ha [7]: 0 to 29%; pest or weed control at 70 g/ha [7]: 0 to 29%; pest or weed control at 140 g/ha [7]: 30 to 44% |
| COC(=O)c1nc(-c2ccc(Cl)c(F)c2OC)c(F)c(N)c1Cl [Compound 39, methyl 4-amino-3-chloro-6-(4-chloro-3-fluoro-2-methoxyphenyl)-5-fluoropicolinate] | 0 to 29% | 30 to 44% | 30 to 44% | >140 g ai/ha | >140 g ai/ha | 85 to 94% | 95 to 100% | 95 to 100% | 6 g ai/ha | 21 g ai/ha | 0 to 29% | 0 to 29% | 45 to 59% | >140 g ai/ha | >140 g ai/ha | 30 to 44% | 60 to 74% | 60 to 74% | 75 g ai/ha | >140 g ai/ha | pest or weed control at 35 g/ha [5]: 30 to 44%; pest or weed control at 70 g/ha [5]: 60 to 74%; pest or weed control at 140 g/ha [5]: 75 to 84%; GR20, HORSS [5]: 23 g ai/ha; pest or weed control at 35 g/ha [6]: 85 to 94%; pest or weed control at 70 g/ha [6]: 95 to 100%; pest or weed control at 140 g/ha [6]: 95 to 100%; GR20, TRZSS [6]: 11 g ai/ha; pest or weed control at 35 g/ha [7]: 0 to 29%; pest or weed control at 70 g/ha [7]: 0 to 29%; pest or weed control at 140 g/ha [7]: 0 to 29% |
